Measurements from patent US20090118470A1 (priority 2005, published 2009).
Read-outs that look alike come from different tables or passages of the source.

Legend:
prions [1] = conditions: cited from earlier work; for effect on prions: alcohols alone
[2] = tested on: 263K strain of scrapie agent; format: in vivo, Syrian gold hamsters; conditions: for inactivation factor: at 80° C.; for Mean incubation period ± SE: diseased animals only; for No. infected/No. injected: intracerebral inoculation
prions [3] = conditions: cited from earlier work

In the case of CCCO [1-propanol], the effect on prions (prions [1]) is given as “do not have an effect on prions”.
For CC(C)O [2-propanol], the effect on prions (prions [1]) is listed as “do not have an effect on prions”.
For O [100% water, water], the inactivation factor [2] was “about 10”, the “Infectivity titre ± SE” value ([2]; heat treatment 80° C./20 min.) was 7.2 ± 0.7 log ID50 per sample and the “Mean incubation period ± SE” value ([2]; heat treatment 80° C./20 min.) was 78 ± 4 days. For the same molecule, the “No. infected/No. injected” value ([2]; heat treatment 80° C./20 min.) was 5/5, the “Infectivity titre ± SE” value ([2]; heat treatment 90° C./20 min.) was 6.2 ± 0.2 log ID50 per sample and the “Mean incubation period ± SE” value ([2]; heat treatment 90° C./20 min.) was 85 ± 1 days. For the same molecule, the “No. infected/No. injected” value ([2]; heat treatment 90° C./20 min.) was 5/5, the “Infectivity titre ± SE” value ([2]; heat treatment 100° C./20 min.) was 5.0 ± 0.1 log ID50 per sample and the “Mean incubation period ± SE” value ([2]; heat treatment 100° C./20 min.) was 97 ± 1 days. The “No. infected/No. injected” value ([2]; heat treatment 100° C./20 min.) was 5/5.
In the case of CCCCCCCCCCCCOS(=O)(=O)[O-].[Na+] [SDS, Sodium dodecylsulfate], the “residual infectivity after treatment” value (prions [1]; heated in SDS solution (3% or greater; 0.10 M) for at least ten minutes, without autoclaving) is given as “Some residual infectivity remains”.
For CCO [ethanol], the effect on prions (prions [1]) is listed as “do not have an effect on prions”.
In the case of OCC(O)CO [glycerol], the inactivation factor [2] is reported as < 10.
For Cl.N=C(N)N [guanidinium hydrochloride], the “conversion of prions into an irregular coiled structure” value (prions [3]; 6 N guanidinium hydrochloride (573 g/l)) is given as “complete conversion”.
For NC(N)=O [urea], the “conversion of prions into an irregular coiled structure” value (prions [3]; 8 N urea (480 g/l)) is given as “complete conversion”.
In the case of guanidinium isothiocyanate, the denaturing effect (prions [3]; 1.5 N solution (177 g/l)) is given as “partially denaturing effect”, the prion inactivation (prions [1]; concentration of 3 M, immersion times longer than 1 hour) is given as “inactivates prions” and the “illness of experimental animals after intracerebral inoculation” value (prions [1]; concentration of 4 M, at least 15 minutes residence time) is given as “no experimental animal in various experiments is reported to become ill”.
